Assay results as given in ChEMBL document CHEMBL5543153, “Discovery of a Potent Dual Son of Sevenless 1 (SOS1) and Epidermal Growth Factor Receptor (EGFR) Inhibitor for the Treatment of Prostate Cancer” (J Med Chem, 2024).
Active and inactive are the calls of the source. No cut-off for these calls is given here.

Tests used:
[1] = target: T1, Son of sevenless homolog 1 (Homo sapiens) (UniProt Q07889); experiment: Inhibition of human recombinant SOS1 at 10 uM relative to control
T1 sequence (whole entry): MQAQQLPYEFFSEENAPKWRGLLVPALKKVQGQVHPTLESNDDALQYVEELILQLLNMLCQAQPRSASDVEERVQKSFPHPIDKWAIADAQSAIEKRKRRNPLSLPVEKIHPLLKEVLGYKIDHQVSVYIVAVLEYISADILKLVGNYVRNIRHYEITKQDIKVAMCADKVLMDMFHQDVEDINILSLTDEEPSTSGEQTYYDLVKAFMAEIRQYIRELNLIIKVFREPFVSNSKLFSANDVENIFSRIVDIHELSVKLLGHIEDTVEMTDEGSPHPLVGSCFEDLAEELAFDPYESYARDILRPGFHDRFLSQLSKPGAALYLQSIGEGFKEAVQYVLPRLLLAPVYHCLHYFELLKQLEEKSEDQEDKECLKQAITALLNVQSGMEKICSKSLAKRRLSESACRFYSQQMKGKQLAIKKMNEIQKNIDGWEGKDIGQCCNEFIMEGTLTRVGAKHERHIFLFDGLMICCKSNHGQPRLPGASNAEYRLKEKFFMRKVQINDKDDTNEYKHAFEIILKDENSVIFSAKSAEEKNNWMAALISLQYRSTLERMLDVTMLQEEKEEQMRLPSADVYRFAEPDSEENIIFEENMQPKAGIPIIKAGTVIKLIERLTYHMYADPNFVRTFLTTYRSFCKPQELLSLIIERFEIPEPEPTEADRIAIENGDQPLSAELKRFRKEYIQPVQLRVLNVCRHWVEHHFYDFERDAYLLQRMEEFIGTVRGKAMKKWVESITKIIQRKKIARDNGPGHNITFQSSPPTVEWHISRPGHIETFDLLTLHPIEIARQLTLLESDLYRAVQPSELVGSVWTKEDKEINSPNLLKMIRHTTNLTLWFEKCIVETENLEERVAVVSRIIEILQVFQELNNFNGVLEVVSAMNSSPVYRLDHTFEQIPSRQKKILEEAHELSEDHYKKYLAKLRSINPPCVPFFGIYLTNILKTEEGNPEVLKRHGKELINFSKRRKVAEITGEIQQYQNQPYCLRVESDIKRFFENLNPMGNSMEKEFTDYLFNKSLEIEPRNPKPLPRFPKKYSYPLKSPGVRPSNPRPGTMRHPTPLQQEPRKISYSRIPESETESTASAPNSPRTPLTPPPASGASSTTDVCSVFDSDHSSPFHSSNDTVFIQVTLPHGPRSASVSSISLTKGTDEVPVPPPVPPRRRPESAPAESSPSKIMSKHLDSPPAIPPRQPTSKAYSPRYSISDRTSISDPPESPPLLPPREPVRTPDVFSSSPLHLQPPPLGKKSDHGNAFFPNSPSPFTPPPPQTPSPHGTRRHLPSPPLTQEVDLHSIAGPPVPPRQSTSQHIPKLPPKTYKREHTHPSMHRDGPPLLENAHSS

[2] = target: T2, Son of sevenless homolog 1 (Homo sapiens, UniProt Q07889); experiment: Inhibition of human recombinant SOS1
T2 sequence (Q07889 whole entry): T1 sequence (whole entry)

[3] = target: T3, Epidermal growth factor receptor (Homo sapiens, UniProt P00533); experiment: Inhibition of EGFR (unknown origin) using ultra ULight GT peptide as substrate incubated for 2 hrs
T3 sequence (P00533 whole entry): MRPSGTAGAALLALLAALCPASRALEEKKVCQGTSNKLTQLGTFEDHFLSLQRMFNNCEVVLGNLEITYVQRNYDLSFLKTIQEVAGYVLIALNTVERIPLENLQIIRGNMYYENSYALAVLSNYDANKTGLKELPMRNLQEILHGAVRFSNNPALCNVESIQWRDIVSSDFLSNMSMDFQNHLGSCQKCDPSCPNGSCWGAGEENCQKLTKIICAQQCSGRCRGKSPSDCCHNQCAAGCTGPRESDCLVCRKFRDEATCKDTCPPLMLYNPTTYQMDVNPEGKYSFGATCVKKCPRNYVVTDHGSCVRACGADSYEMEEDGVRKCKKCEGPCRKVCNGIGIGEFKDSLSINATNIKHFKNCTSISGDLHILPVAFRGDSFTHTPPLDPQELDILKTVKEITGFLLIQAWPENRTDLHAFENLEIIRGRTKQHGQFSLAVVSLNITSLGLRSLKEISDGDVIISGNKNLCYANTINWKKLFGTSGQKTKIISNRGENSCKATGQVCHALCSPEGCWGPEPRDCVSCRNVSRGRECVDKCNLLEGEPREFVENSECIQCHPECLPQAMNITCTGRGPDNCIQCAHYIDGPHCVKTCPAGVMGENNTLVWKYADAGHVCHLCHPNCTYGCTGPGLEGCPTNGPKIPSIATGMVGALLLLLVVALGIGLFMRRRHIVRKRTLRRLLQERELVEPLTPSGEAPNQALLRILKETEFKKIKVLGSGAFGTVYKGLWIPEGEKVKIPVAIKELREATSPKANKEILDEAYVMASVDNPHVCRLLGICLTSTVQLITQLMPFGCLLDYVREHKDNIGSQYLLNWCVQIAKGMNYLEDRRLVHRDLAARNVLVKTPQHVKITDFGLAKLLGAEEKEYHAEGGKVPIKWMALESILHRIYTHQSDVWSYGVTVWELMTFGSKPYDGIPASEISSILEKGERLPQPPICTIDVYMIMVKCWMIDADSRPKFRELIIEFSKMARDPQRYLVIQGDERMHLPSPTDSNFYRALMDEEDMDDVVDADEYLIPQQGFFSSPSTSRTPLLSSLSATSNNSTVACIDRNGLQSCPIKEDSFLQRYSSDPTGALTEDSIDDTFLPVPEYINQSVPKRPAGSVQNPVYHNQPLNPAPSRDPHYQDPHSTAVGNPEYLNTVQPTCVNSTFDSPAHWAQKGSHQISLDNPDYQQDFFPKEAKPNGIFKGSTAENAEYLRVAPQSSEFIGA

[4] = tested on: A549; experiment: Antiproliferative activity against human A549 cells assessed as inhibition of cell growth incubated for 72 hrs by MTT assay; format: functional, cell-based
[5] = Antiproliferative activity against human RWPE-1 cells assessed as inhibition of cell growth incubated for 72 hrs by MTT assay; format: toxicity, cell-based
[6] = tested on: SK-LU-1; experiment: Antiproliferative activity against human SK-LU-1 cells harboring KRAS G12D mutant assessed as inhibition of cell growth incubated for 72 hrs by MTT assay; format: functional, cell-based; conditions: SK-LU-1, 72 h
[7] = target: T3, Epidermal growth factor receptor; experiment: Inhibition of EGFR in human PC-3 cells assessed as downregulation of AKT phosphorylation at 2.5 uM incubated for 15 mins by Western blotting analysis; format: cell-based
[8] = tested on: PC-3; experiment: Induction of apoptosis in human PC-3 cells assessed as late apoptotic cells at 0.5 uM by Annexin V-FITC staining based flow cytometry (reference value: 1.93%); format: functional
[9] = tested on: PC-3; experiment: Induction of apoptosis in human PC-3 cells assessed as late apoptotic cells at 12.5 uM by Annexin V-FITC staining based flow cytometry (reference value: 1.93%); format: functional
[10] = tested on: PC-3; experiment: Induction of apoptosis in human PC-3 cells assessed as upregulation of cleaved PARP expression by Western blotting analysis; format: functional, cell-based
[11] = tested on: PC-3; experiment: Inhibition of colony formation in human PC-3 cells incubated for 15 days by crystal violet staining based microscopic analysis; format: functional, cell-based; conditions: time 15.0 day
[12] = tested on: HUVEC; experiment: Antiangiogenic activity in HUVEC cells assessed as reduction in tube master junction at 0.5 to 12.5 uM incubated for 8 hrs by matrigel based microscopic analysis; format: functional, cell-based; conditions: Homo sapiens, dose 0.5-12.5 µM
[13] = tested on: HUVEC; experiment: Antiangiogenic activity in HUVEC cells assessed as reduction in tube length at 0.5 to 12.5 uM incubated for 8 hrs by matrigel based microscopic analysis; format: functional, cell-based; conditions: Homo sapiens, dose 0.5-12.5 µM
[14] = tested on: HUVEC; experiment: Inhibition of cell migration in HUVEC cells at 0.5 to 12.5 uM measured after 48 hrs by crystal violet staining based transwell invasion assay; format: functional; conditions: Homo sapiens, dose 0.5-12.5 µM
[15] = tested on: PC-3; experiment: Antitumor activity against human PC-3 cells xenografted in BALB/c mouse assessed as reduction in tumor volume at 5 mg/kg,ip administrated once every 4 days for 24 days; format: functional, organism-based; conditions: time 24.0 day
[16] = tested on: PC-3; experiment: Antitumor activity against human PC-3 cells xenografted in BALB/c mouse assessed as reduction in tumor weight at 5 mg/kg,ip administrated once every 4 days for 24 days; format: functional, organism-based; conditions: time 24.0 day
[17] = Toxicity in BALB/c mouse xenografted with human PC-3 cells assessed as heart pathological change at 20 mg/kg,ip administrated once every 4 days for 24 days by hematoxylin and eosin staining based analysis; format: organism-based; conditions: in vivo, 576 h, time 24 day
[18] = Toxicity in BALB/c mouse xenografted with human PC-3 cells assessed as liver pathological change at 20 mg/kg,ip administrated once every 4 days for 24 days by hematoxylin and eosin staining based analysis; format: organism-based; conditions: in vivo, 576 h, time 24 day
[19] = Toxicity in BALB/c mouse xenografted with human PC-3 cells assessed as lung pathological change at 5 mg/kg,ip administrated once every 4 days for 24 days by hematoxylin and eosin staining based analysis; format: organism-based; conditions: in vivo, 576 h, time 24 day
[20] = Toxicity in BALB/c mouse xenografted with human PC-3 cells assessed as kidney pathological change at 5 mg/kg,ip administrated once every 4 days for 24 days by hematoxylin and eosin staining based analysis; format: organism-based; conditions: in vivo, 576 h, time 24 day
[21] = Toxicity in BALB/c mouse xenografted with human PC-3 cells assessed as change in AST level at 5 mg/kg,ip administrated once every 4 days for 24 days by automatic biochemical analyzer; format: organism-based; conditions: in vivo, 576 h, time 24 day
[22] = Toxicity in BALB/c mouse xenografted with human PC-3 cells assessed as change in blood urea nitrogen level at 20 mg/kg,ip administrated once every 4 days for 24 days by automatic biochemical analyzer; format: organism-based; conditions: in vivo, 576 h, time 24 day
[23] = Toxicity in BALB/c mouse xenografted with human PC-3 cells assessed as change in creatinine level at 20 mg/kg,ip administrated once every 4 days for 24 days by automatic biochemical analyzer; format: organism-based; conditions: in vivo, 576 h, time 24 day

`COc1cc2ncnc(N[C@H](C)c3cccc(F)c3)c2cc1OC1CCOCC1` showed an inhibition [1] of 97%, an IC50 [2] of 42.1 nM and an IC50 [3] of 1.01 nM. For the same compound, the Activity [4] was “Active”, the IC50 at 72 h [5] was > 10 µM and the IC50 [6] was 550 nM. The inhibition [7] was “Active”, the Activity [8] was 2.74% and the Activity [9] was 4.07%. The Activity [10] was “Dose-Dependent Effect”, the inhibition [11] was “Dose-Dependent Effect” and the Activity [12] was “Active”. For the same compound, the Activity [13] was “Active”, the inhibition [14] was “Active” and the Activity [15] was “Active”. The Activity [16] was “Active”, the Activity [17] was “Toxic” and the Activity [18] was “Toxic”. The Activity [19] was “Toxic”, the Activity [20] was “Toxic” and the Activity [21] was “Non-Toxic”. The Activity [22] was “Non-Toxic” and the Activity [23] was “Non-Toxic”.
